Counter-ions that a name gives are not always drawn.
How the values were obtained:
[1] = system: human cervical tumor cell line HeLa (ATCC CCL-2); experiment: SAC-Formation - Nocodazole-Induced Assay; format: cell-based; settings: 24 h, HeLa cells, nocodazole 0.1 μg/ml together with test compound, decrease of mitotic cells (phospho-histone H3 Ser10)
Summary of the method: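 Loss of phospho-histone H3 Ser10-positive cells, counted against Hoechst-stained nuclei by high-content imaging, marked mitotic breakthrough. Compounds (0.005–20 μM, 0.5% DMSO) were co-dosed with 0.1 μg/ml nocodazole onto HeLa cells for 24 h at 37 °C. Curves were fitted with a four-parameter Hill equation.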

[2] = system: human cervical tumor cell line HeLa (ATCC CCL-2); experiment: SAC-Formation - Paclitaxel-Induced Assay; format: cell-based; settings: 24 h, HeLa cells, paclitaxel 0.05 μM, test range 0.005 μM-20 μM, read-out: IC50 [mol/l] SAC-Formation - Paclitaxel-Induced Assay
Summary of the method: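 Read-out is high-content imaging of anti-phospho-H3 Ser10 (mitosis) and Hoechst 33342 (DNA, cell number), with decreased mitotic fraction marking checkpoint breakthrough. Compounds (0.005–20 μM) and 0.05 μM paclitaxel co-added to overnight-plated HeLa for 24 h at 37° C; four-parameter Hill fit.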

| SMILES | IC50 ([1]; Homo sapiens, HeLa) [nM] | IC50 ([2]; Homo sapiens, HeLa) [nM] | IC50 [1] [nM] | IC50 [2] [nM] |
| --- | --- | --- | --- | --- |
| Cc1nsc(Nc2cnc3ccccc3n2)c1C(=O)Nc1cccc(C(=O)N[C@@H](CCC(N)=O)C(=O)O)c1 [Example 103, N^2-[3-({[3-Methyl-5-(quinoxalin-2-ylamino)-1,2-thiazol-4-yl]carbonyl}amino)-benzoyl]glutamine] | 13000 | 20000 | – | – |
| Cc1nsc(Nc2cnc(C(F)(F)F)cn2)c1C(=O)Nc1ccc(OC[C@H]2CCN(CC(F)(F)F)C2)nc1 (racemic) [Example 133, 3-Methyl-N-(6-{[(SR)-1-(2,2,2-trifluoroethyl)pyrrolidin-3-yl]methoxy}pyridin-3-yl)-5-{[5-(trifluoromethyl)pyrazin-2-yl]amino}-1,2-thiazole-4-carboxamide] | 27 | – | – | – |
| Cc1nsc(Nc2cnc(C(F)(F)F)cn2)c1C(=O)Nc1ccc(OC[C@@H]2CCN(CCC(F)(F)F)C2)nc1 [Example 129, 3-Methyl-5-{[5-(trifluoromethyl)pyrazin-2-yl]amino}-N-(6-{[(3R)-1-(3,3,3-trifluoropropyl)pyrrolidin-3-yl]methoxy}pyridin-3-yl)-1,2-thiazole-4-carboxamide] | 32 | 84 | – | – |
| Cc1nsc(Nc2cnc(C(F)(F)F)cn2)c1C(=O)Nc1ccc(O[C@@H]2CCN(CCC(F)(F)F)C[C@@H]2F)nc1 [Example 139, N-(6-{[(3S,4R)-3-fluoro-1-(3,3,3-trifluoropropyl)piperidin-4-yl]oxy}pyridin-3-yl)-3-methyl-5-{[5-(trifluoromethyl)pyrazin-2-yl]amino}-1,2-thiazole-4-carboxamide] | 16 | 89 | – | – |
| Cc1nsc(Nc2cnc3ccccc3n2)c1C(=O)Nc1cccc(C(=O)N2CCN(C)CC2)c1 [Example 102, 3-Methyl-N-{3-[(4-methylpiperazin-1-yl)carbonyl]phenyl}-5-(quinoxalin-2-ylamino)-1,2-thiazole-4-carboxamide] | 4900 | 7500 | – | – |
| Cc1nsc(Nc2cnc3ccccc3n2)c1C(=O)Nc1cccc(C(=O)NCC(=O)O)c1 [Example 99, N-[3-({[3-Methyl-5-(quinoxalin-2-ylamino)-1,2-thiazol-4-yl]carbonyl}amino)benzoy]-glycine] | 1100 | 20000 | – | – |
| Cc1nsc(Nc2cnc(C(F)(F)F)cn2)c1C(=O)Nc1ccc(OC2CCN(CCF)CC2)c(F)c1 [Example 162, N-(3-fluoro-4-{[1-(2-fluoroethyl)piperidin-4-yl]oxy}phenyl)-3-methyl-5-{[5-(trifluoromethyl)pyrazin-2-yl]amino}-1,2-thiazole-4-carboxamide] | 160 | 120 | – | – |
| Cc1nsc(Nc2ccc(C#N)cn2)c1C(=O)Nc1ccc(N[C@@H](C)C(=O)OC(C)(C)C)nc1 [Example 170, tert-butyl N-{5-[({5-[(5-cyanopyridin-2-yl)amino]-3-methyl-1,2-thiazol-4-yl}carbonyl)amino]pyridin-2-yl}alaninate] | 2300 | 1100 | – | – |
| Cc1nsc(Nc2cnc3ccccc3n2)c1C(=O)Nc1cccc(-c2nc(C(C)(C)C)no2)c1 [Example 108, N-[3-(3-tert-Butyl-1,2,4-oxadiazol-5-yl)phenyl]-3-methyl-5-(quinoxalin-2-ylamino)-1,2-thiazole-4-carboxamide] | 19 | 53 | – | – |
| Cc1nsc(Nc2cnc(C(F)(F)F)cn2)c1C(=O)Nc1ccc(F)c(C(N)=O)c1 [Example 151, N-(3-carbamoyl-4-fluorophenyl)-3-methyl-5-{[5-(trifluoromethyl)pyrazin-2-yl]amino}-1,2-thiazole-4-carboxamide] | 290 | 1300 | – | – |
| Cc1nsc(Nc2cnc(C(F)(F)F)cn2)c1C(=O)Nc1ccc(OC2CCN(CCC(F)(F)F)CC2)nc1 [Example 10, 3-Methyl-5-{[5-(trifluoromethyl)pyrazin-2-yl]amino}-N-(6-{[1-(3,3,3-trifluoropropyl)-piperidin-4-yl]oxy}pyridin-3-yl)-1,2-thiazole-4-carboxamide] | – | – | 260 | 340 |
| CCCCN1CC[C@@H](Oc2ccc(NC(=O)c3c(C)nsc3Nc3cnc(C(F)(F)F)cn3)cn2)[C@@H](F)C1 [Example 141, N-(6-{[(3S,4R)-1-butyl-3-fluoropiperidin-4-yl]oxy}pyridin-3-yl)-3-methyl-5-{[5-(trifluoromethyl)pyrazin-2-yl]amino}-1,2-thiazole-4-carboxamide] | 36 | 120 | – | – |
| CNS(=O)(=O)c1ccc(NC(=O)c2c(C)nsc2Nc2cnc3ccccc3n2)cc1 [Example 111, 3-Methyl-N-[4-(methylsulfannoyl)phenyl]-5-(quinoxalin-2-ylamino)-1,2-thiazole-4-carboxamide] | 110 | 130 | – | – |
| Cc1nsc(Nc2cnc(C(F)(F)F)cn2)c1C(=O)Nc1ccc(OC2CCN(CCC(F)(F)F)CC2)nc1 [Example 426, 3-Methyl-5-{[5-(trifluoromethyl)pyrazin-2-yl]amino}-N-(6-{[1-(3,3,3-trifluoro-propyl)piperidin-4-yl]oxy}pyridin-3-yl)-1,2-thiazole-4-carboxamide, Salt with Hydrochloric Acid] | – | – | 30 | 32 |
| Cc1nsc(Nc2cnc(C(F)(F)F)cn2)c1C(=O)Nc1ccc(OC[C@@H]2CCN(CC(F)F)C2)nc1 [Example 127, N-(6-{[(3R)-1-(2,2-difluoroethyl)pyrrolidin-3-yl]methoxy}pyridin-3-yl)-3-methyl-5-{[5-(trifluoromethyl)pyrazin-2-yl]amino}-1,2-thiazole-4-carboxamide] | 53 | 83 | – | – |
| Cc1nsc(Nc2cnc(C(F)(F)F)cn2)c1C(=O)Nc1ccc(OC[C@H]2CCN(CCC(F)(F)F)C2)nc1 [Example 134, 3-Methyl-5-{[5-(trifluoromethyl)pyrazin-2-yl]amino}-N-(6-{[(3S)-1-(3,3,3-trifluoropropyl)pyrrolidin-3-yl]methoxy}pyridin-3-yl)-1,2-thiazole-4-carboxamide] | 36 | – | – | – |
| COc1ccc(NC(=O)c2c(C)nsc2Nc2ccc(C#N)cn2)c(N2CCOCC2)n1 [Example 173, 5-[(5-cyanopyridin-2-yl)amino]-N-[6-methoxy-2-(morpholin-4-yl)pyridin-3-yl]-3-methyl-1,2-thiazole-4-carboxamide] | 1900 | 6700 | – | – |
| Cc1nsc(Nc2cnc3ccccc3n2)c1C(=O)Nc1ccc(C(=O)NCCN2CCCC(F)(F)C2)cc1 [Example 156, N-(4-{[2-(3,3-difluoropiperidin-1-yl)ethyl]carbamoyl}phenyl)-3-methyl-5-(quinoxalin-2-ylamino)-1,2-thiazole-4-carboxamide] | 2100 | 4000 | – | – |
| Cc1nsc(Nc2cnc(C(F)(F)F)cn2)c1C(=O)Nc1ccc(OCC2CCN(CCF)C2)nc1 (stereo not shown) [Example 121, N-(6-{[1-(2-fluoroethyl)pyrrolidin-3-yl]methoxy}pyridin-3-yl)-3-methyl-5-{[5-(trifluoromethyl)pyrazin-2-yl]amino}-1,2-thiazole-4-carboxamide] | 340 | 43 | – | – |
| Cc1nsc(Nc2cnc(C(F)(F)F)cn2)c1C(=O)Nc1ccc(OC[C@H]2CCN(CC(F)F)C2)nc1 [Example 132, N-(6-{[(3S)-1-(2,2-difluoroethyl)pyrrolidin-3-yl]methoxy}pyridin-3-yl)-3-methyl-5-{[5-(trifluoromethyl)pyrazin-2-yl]amino}-1,2-thiazole-4-carboxamide] | 27 | – | – | – |

— patent publication US20170334899A1, “AMINO-SUBSTITUTED ISOTHIAZOLES” (Bayer Pharma Aktiengesellschaft, priority 2014, published 2017)
